# Assay results reported in patent publication EP0563734A1, “9-fluoro-7-oxo-7H-pyrido(1,2,3-de)(1,4)benzoxazine carboxylic acids and esters and their use as antiviral agents” (BAYER AG, priority 1992, dated 1993).
# Tested on: Hepatitis B Virus
# Assay: HBV test system: HBV-DNA content in the supernatant of HBV-DNA-transfected hepatoma cells (HEP G2.2.15), after PEG precipitation, with a non-radioactive HBV genomic DNA probe
# Assay type: cell-based
# Details: HepG2.2.15, 50%ige Hemmung der HBV-DNA Konzentration im Überstand, read-out: IC₅₀
# Text: Der Nachweis wurde in mit Hepatitis B Virus DNA transfizierten Hepatomzellen (HEP G2.2.15) geführt. Die Ergebnisse der unten aufgeführten Beispiele wurden zu dem in der folgenden Literaturangabe [Sells, M.A.; Chen, M.L., Acs, G., Proc. Natl. Acad. Sci. USA S. 1005 - 1009, Vol. 84 (1987] beschriebenen HBV-Testsystem ermittelt: Transfizierte Hepatomzellen (HEP G2.2.15) wurden mit verschiedenen Konzentrationen der jeweiligen Verbindung inkubiert. Durch Behandlung der transfizierten Hepatomzellinie HEP G2.2.15 mit den erfindungsgemäßen Verbindungen konnte die Reduktion der virusspezifischen HBV-DNA im Überstand sowie eine Reduktion des HBsAg Spiegels gezeigt werden. Es wurde weiter gefunden, daß die erfindungsgemäßen Verbindungen zu einer Reduktion der replikativen Intermediate der Hepatitisviren führen. Im Überstand der Zellkulturen wurde nach PEG Fällung der Gehalt an HBV-DNA bestimmt. Dies geschah unter Verwendung einer nicht radioaktiv markierten HBV genomischen DNA Probe [Pauly, P., 1982, Ph. D. Thesis, University of Göttingen, F.R.G.; Köchel et al., 1990, EMBL, Accession-Nr. X 51790]. Gleichzeitig erfolgte der Nachweis der Beeinflussung der HBsAg Bildung mittels eines kommerziell erhältlichen ELISA Tests. Die angegebenen IC₅₀-Werte beziehen sich auf die Substratkonzentrationen, die unter den oben aufgeführten Testbedingungen eine 50%ige Hemmung der HBV-DNA Konzentration im Überstand bewirken. Tabelle A
# Gleichzeitig erfolgte die Bestimmung des möglicherweise vorhandenen cytotoxischen Einflusses der erfindungsgemäßen Verbindungen mittels Kristallviolettfärbung bzw. über den Einbau von radioaktiv markiertem Thymidin in die zelluläre DNA.
row,SMILES,IC50
1,"CCOC(=O)c1cn2c3c(c(F)c(F)cc3c1=O)OC(C(C)(C)CCCOc1ccccc1)=C2 [Beispiel VIII, 9,10-Difluor-2-(2-methyl-5-phenoxy-2-pentyl)-7-oxo-7H-pyrido[1,2,3-de][1,4]-benzoxazin-6-carbonsäureethylester]",0.5 µM
2,"CCOC(=O)C1=Cn2cc(C(=O)OCC)c(=O)c3cc(F)c(F)c(c32)O1 [Beispiel I, 9,10-Difluor-2-ethoxycarbonyl-7-oxo-7H-pyrido[1,2,3-de][1,4]benzoxazin-6-carbonsäureethylester]",0.5 µM
3,"CC1=COc2c(N3CCN(C4CC4)CC3)c(F)cc3c(=O)c(C(=O)O)cn1c23 [Beispiel 9, 10-(4-Cyclopropyl-piperazin-1-yl)-9-fluor-3-methyl-7-oxo-7H-pyrido-[1,2,3-de][1,4]benzoxazin-6-carbonsäure]",0.1 µM
